According to PubChem BioAssay (NCI):
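Each compound was tested at five concentrations against cells in 96-well plates for 48 hours. GI50: concentration for 50% inhibition of growth. Definition used: TGI = concentration required for complete inhibition of growth.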

Assays:
Test in all cases: NCI anticancer screen, dose series, 48 h
[1] = test system: DU-145 prostate
[2] = test system: EKVX NSCLC
[3] = test system: IGROV1 ovarian
[4] = test system: K-562 leukemia
[5] = test system: NCI-H226 lung
[6] = test system: NCI-H23 lung
[7] = test system: NCI-H522 lung
[8] = test system: NCI/ADR-RES ovarian
[9] = test system: SK-MEL-5 melanoma
[10] = test system: UACC-257 melanoma

Work on `NC(=NCCCOc1ccc(Cl)cc1)Nc1ccc(C(F)(F)F)cc1` yielded a GI50 [1] of 2.62 µM, a TGI [1] of 7.26 µM and a GI50 [2] of 2.51 µM. It also gave a TGI [2] of 8.65 µM, a GI50 [3] of 1.47 µM and a TGI [3] of 4.12 µM. The GI50 [4] was 1.76 µM, the TGI [4] was 5.6 µM and the GI50 [5] was 3.87 µM. It also gave a TGI [5] of 19.2 µM, a GI50 [6] of 2.06 µM and a TGI [6] of 5.54 µM. The GI50 [7] was 1.75 µM, the TGI [7] was 4.41 µM and the GI50 [8] was 2.35 µM. For the same compound, the TGI [8] was 7.27 µM, the GI50 [9] was 1.61 µM and the TGI [9] was 2.97 µM. It also gave a GI50 [10] of 1.72 µM and a TGI [10] of 3.56 µM.

In the case of `COc1ccc2c(c1)CCC1C2CC[C@@]2(C)C1CC1=CC(COC(C)=O)C3C(=O)c4ccccc4C(=O)C3C12` (stereo not given in full), the GI50 [1] is reported as over 100 µM, the TGI [1] is reported as over 100 µM and the GI50 [2] is reported as over 100 µM. For the same compound, the TGI [2] was over 100 µM, the GI50 [3] was over 100 µM and the TGI [3] was over 100 µM. The GI50 [4] was 64.1 µM, the TGI [4] was over 100 µM and the GI50 [5] was over 100 µM. It also gave a TGI [5] of over 100 µM, a GI50 [6] of over 100 µM and a TGI [6] of over 100 µM. For the same compound, the GI50 [7] was over 100 µM, the TGI [7] was over 100 µM and the GI50 [8] was over 100 µM. The TGI [8] was over 100 µM, the GI50 [9] was over 100 µM and the TGI [9] was over 100 µM. It also gave a GI50 [10] of over 100 µM and a TGI [10] of over 100 µM.

In the case of `O=S(=O)(Nc1cc(F)cc(Cl)c1)c1ccc(-c2cnc(C3CC3)o2)cc1`, the GI50 [1] is reported as 3.58 µM, the TGI [1] is reported as 23.2 µM and the GI50 [2] is reported as 4.86 µM. For the same compound, the TGI [2] was 39.1 µM, the GI50 [3] was 0.771 µM and the TGI [3] was 17.5 µM. For the same compound, the GI50 [4] was 0.422 µM, the TGI [4] was over 100 µM and the GI50 [5] was 3.46 µM. It also gave a TGI [5] of 17.9 µM, a GI50 [6] of 2.62 µM and a TGI [6] of 18.3 µM. It also gave a GI50 [7] of 1.09 µM, a TGI [7] of 16.5 µM and a GI50 [8] of 1.08 µM. The TGI [8] was 15.5 µM, the GI50 [9] was 1.83 µM and the TGI [9] was 11.7 µM. For the same compound, the GI50 [10] was 13.6 µM and the TGI [10] was 34.9 µM.

With `CC(C)(C)C(=O)OCOP(=O)(OCOC(=O)C(C)(C)C)C1CCCN(O)C1=O` (stereo not given) the GI50 [1] was 0.831 µM, the TGI [1] was over 100 µM and the GI50 [2] was 0.657 µM. It also gave a TGI [2] of 12.5 µM, a GI50 [3] of 0.393 µM and a TGI [3] of 2.73 µM. It also gave a GI50 [4] of 0.393 µM, a TGI [4] of over 100 µM and a GI50 [5] of 0.996 µM. For the same compound, the TGI [5] was 9.62 µM, the GI50 [6] was 0.564 µM and the TGI [6] was 3.4 µM. It also gave a GI50 [7] of 0.308 µM, a TGI [7] of 1.83 µM and a GI50 [8] of 0.434 µM. The TGI [8] was 3.55 µM, the GI50 [9] was 0.324 µM and the TGI [9] was 1.58 µM. The GI50 [10] was 1.19 µM and the TGI [10] was 13.5 µM.

Work on `COc1cc(Nc2cn[nH]c2-c2ccc(Cl)cc2)cc(OC)c1OC` yielded a GI50 [1] of 8.73 µM, a TGI [1] of 42 µM and a GI50 [2] of 5.21 µM. The TGI [2] was 52.7 µM, the GI50 [3] was 4.6 µM and the TGI [3] was 69.6 µM. It also gave a GI50 [4] of 2.49 µM, a TGI [4] of 97.2 µM and a GI50 [5] of 11.7 µM. The TGI [5] was 30.4 µM, the GI50 [6] was 8.33 µM and the TGI [6] was over 60.8 µM. It also gave a GI50 [7] of 6.81 µM, a TGI [7] of 37.5 µM and a GI50 [8] of 4.42 µM. The TGI [8] was over 36.8 µM, the GI50 [9] was 3.58 µM and the TGI [9] was 14.6 µM. For the same compound, the GI50 [10] was 15.7 µM and the TGI [10] was over 83.6 µM.

`CC(SC(C)C(=O)N/N=C/c1cccc(Cl)c1)C(=O)N/N=C\c1cccc(Cl)c1` (stereo not given) gave a GI50 [1] of 6.58 µM, a TGI [1] of 25.2 µM and a GI50 [2] of 13.3 µM. The TGI [2] was 59.7 µM, the GI50 [3] was 18.4 µM and the TGI [3] was 69.3 µM. For the same compound, the GI50 [4] was 31.6 µM, the TGI [4] was over 100 µM and the GI50 [5] was 17.5 µM. For the same compound, the TGI [5] was 43.1 µM, the GI50 [6] was 14 µM and the TGI [6] was 32.6 µM. It also gave a GI50 [7] of 3.57 µM, a TGI [7] of 11.6 µM and a GI50 [8] of 71.7 µM. For the same compound, the TGI [8] was over 100 µM, the GI50 [9] was 16.3 µM and the TGI [9] was 31.4 µM. It also gave a GI50 [10] of 32.3 µM and a TGI [10] of over 100 µM.

Compound `COc1ncnc(C2CC2)c1-c1ncc2cnn(Cc3ccc(-c4nc(C(F)(F)F)cn4C(C)C)cc3)c2n1` has a GI50 [1] of 22.1 µM, a TGI [1] of over 100 µM and a GI50 [2] of 19 µM. For the same compound, the TGI [2] was 95.3 µM, the GI50 [3] was 21.1 µM and the TGI [3] was over 100 µM. The GI50 [4] was 13.9 µM, the TGI [4] was over 100 µM and the GI50 [5] was 9.08 µM. It also gave a TGI [5] of 50.7 µM, a GI50 [6] of 21.8 µM and a TGI [6] of 78 µM. For the same compound, the GI50 [7] was 8.52 µM, the TGI [7] was 48.3 µM and the GI50 [8] was 15.6 µM. It also gave a TGI [8] of 82.6 µM, a GI50 [9] of 12.6 µM and a TGI [9] of 25.2 µM. It also gave a GI50 [10] of 18.4 µM and a TGI [10] of 58.8 µM.

`COc1ccc(C(=O)c2cc(OC)c(C)c(OC)c2)cc1OC(=O)CCl` gave a GI50 [1] of 0.322 µM, a TGI [1] of 18.2 µM and a GI50 [2] of 3.6 µM. It also gave a TGI [2] of over 100 µM, a GI50 [3] of 1.19 µM and a TGI [3] of over 100 µM. For the same compound, the GI50 [4] was 0.0538 µM, the TGI [4] was over 100 µM and the GI50 [5] was 8 µM. For the same compound, the TGI [5] was over 30.6 µM, the GI50 [6] was 0.558 µM and the TGI [6] was over 100 µM. The GI50 [7] was 0.21 µM, the TGI [7] was 14.1 µM and the GI50 [8] was 0.181 µM. The TGI [8] was 4.38 µM, the GI50 [9] was 0.463 µM and the TGI [9] was 3.4 µM. For the same compound, the GI50 [10] was 14 µM and the TGI [10] was over 95.8 µM.

Work on `Oc1ccc(Cl)cc1Cc1cc(Cl)cc(Cl)c1O` yielded a GI50 [1] of 4.94 µM, a TGI [1] of 53.7 µM and a GI50 [2] of 3.75 µM. It also gave a TGI [2] of 62.5 µM, a GI50 [3] of 6.31 µM and a TGI [3] of 28.9 µM. The GI50 [4] was 4.52 µM, the TGI [4] was 28.4 µM and the GI50 [5] was 12.7 µM. It also gave a TGI [5] of 37.2 µM, a GI50 [6] of 3.32 µM and a TGI [6] of 10.6 µM. It also gave a GI50 [7] of 3.43 µM, a TGI [7] of 13.2 µM and a GI50 [8] of 3.29 µM. It also gave a TGI [8] of 10 µM, a GI50 [9] of 1.85 µM and a TGI [9] of 4.89 µM. It also gave a GI50 [10] of 5.01 µM and a TGI [10] of 32.5 µM.

`Cc1ccc(Cl)cc1Nc1nc(C(F)(F)F)ccc1C(=O)N1CCN(c2ccc(F)cc2)CC1` showed a GI50 [1] of 17.4 µM, a TGI [1] of 36.6 µM and a GI50 [2] of 12.8 µM. It also gave a TGI [2] of 45.4 µM, a GI50 [3] of 0.21 µM and a TGI [3] of 27.2 µM. The GI50 [4] was 9.53 µM, the TGI [4] was 30 µM and the GI50 [5] was 15.5 µM. The TGI [5] was 31.3 µM, the GI50 [6] was 10.2 µM and the TGI [6] was 24.2 µM. The GI50 [7] was 12.3 µM, the TGI [7] was 30.2 µM and the GI50 [8] was 13.3 µM. The TGI [8] was 36.7 µM, the GI50 [9] was 12 µM and the TGI [9] was 24.3 µM. For the same compound, the GI50 [10] was 19.7 µM and the TGI [10] was 46.5 µM.

`O=c1c2ccccc2[se]n1-c1cccnc1` was tested, and the TGI [1] was 34.6 µM, the TGI [2] was over 100 µM and the TGI [3] was 46.7 µM. The TGI [4] was over 100 µM, the TGI [5] was over 100 µM and the TGI [6] was 53.2 µM. It also gave a TGI [7] of 55.4 µM, a TGI [8] of over 100 µM and a TGI [9] of 26.7 µM. It also gave a TGI [10] of 57.7 µM.

`COC(=O)/C=C/c1cc(O)c2oc(-c3ccc(O)c(O)c3)c(C(=O)OC)c2c1` gave a GI50 [1] of 0.369 µM, a TGI [1] of 12 µM and a GI50 [2] of 3.3 µM. The TGI [2] was 16.6 µM, the GI50 [3] was 0.543 µM and the TGI [3] was 11.5 µM. For the same compound, the GI50 [4] was 0.0511 µM, the TGI [4] was 26.9 µM and the GI50 [5] was 3.85 µM. It also gave a TGI [5] of 22.3 µM, a GI50 [6] of 0.43 µM and a TGI [6] of 7.81 µM. It also gave a GI50 [7] of 0.0472 µM, a TGI [7] of 4.72 µM and a GI50 [8] of 0.134 µM. It also gave a TGI [8] of 6.63 µM, a GI50 [9] of 0.221 µM and a TGI [9] of 1.61 µM. It also gave a GI50 [10] of 2.83 µM and a TGI [10] of 16.5 µM.
